The test system of data set [1] is Mouse CT26 tumor explants. In words: 5-FC cell killing assay (MTS) on CT26 tumor explants. The data set is classed as cell-based. The note with it: explant animal 31: CT26, AC3-yCD2(V) E5 + 5-FC, 3.5 5-FC dosings.
Data set [2] deals with recurrent anaplastic oligodendroglioma. In words: Patient dog with spontaneous recurrent anaplastic oligodendroglioma, vector by CED plus 5-FC. Conditions: second cycle 160 mg/kg/day by mouth, stopped after fifth day.
A further data set has as its system U-87 cells. The experiment in a line: yCD protein level in infected U-87 cells (FIG. 4). The data set is classed as cell-based, human.

“Also recorded” adds a separate entry of the source.

For `Nc1nc(=O)[nH]cc1F` [Vector 5-FC, 5-fluorocytosine], in data set [1], the “5-FC sensitivity IC50 (mM)” value was “poorly responsive; also recorded: Not sensitive”. Also, the adverse event result in data set [2] is “development of rash”.

B1: yCD2 protein: yeast cytosine deaminase with A23L/V108I/I140L substitutions, human codon optimized gene (SEQ ID NO:4) (protein, UniProt Q12178 1-158, looked up, variant A23L V108I I140L)
Cytosine deaminase: MVTGGMASKWDQKGMDIAYEEALLGYKEGGVPIGGCLINNKDGSVLGRGHNMRFQKGSATLHGEISTLENCGRLEGKVYKDTTLYTTLSPCDMCTGAIIMYGIPRCVIGENVNFKSKGEKYLQTRGHEVVVVDDERCKKLMKQFIDERPQDWFEDIGE
Take B1: the “CD protein level compared to wild type yCD protein” value with U-87 cells is reported as “higher levels”.

The values above are taken from patent US10407666B2, “Recombinant vectors” (priority 2008, dated 2019).
